Results: patent publication US9232799B2, “N-[(het)arylethyl)] pyrazole(thio)carboxamides and their heterosubstituted analogues” (BAYER INTELLECTUAL PROPERTY GMBH, priority 2010, dated 2016)

Legend:
[1] = tested on: Pyrenophora teres; test: In vivo preventive test on Pyrenophora teres (barley); conditions: 500 ppm of active ingredient, evaluated 7-9 days after inoculation
Text: One day after this treatment, the plants are inoculated with an aqueous spore suspension of Pyrenophora teres.

[2] = logP by HPLC on reversed-phase column (C 18), EEC Directive 79/831 Annex V.A8; type: physicochemical
Method: In table 1, the logP values were determined in accordance with EEC Directive 79/831 Annex V.A8 by HPLC (High Performance Liquid Chromatography) on a reversed-phase column (C 18), using the method described below: Temperature: 40° C.; […]

[3] = tested on: Alternaria solani; test: In vivo preventive test on Alternaria solani (tomato); conditions: 500 ppm of active ingredient, evaluated 7 days after inoculation
Text: One day after this treatment, the plants are inoculated with an aqueous spore suspension of Alternaria solani.

[4] = tested on: Sphaerotheca fuliginea; test: In vivo preventive test on Sphaerotheca fuliginea (cucumber); conditions: 500 ppm of active ingredient, evaluated 7 days after inoculation
Text: One day after this treatment, the plants are inoculated with an aqueous spore suspension of Sphaerotheca fuliginea.

[5] = tested on: aflatoxines production; test: microbe, parasite or virus in culture; type: cell-based, Aspergillus parasiticus; conditions: 50 μM
[6] = tested on: Fusarium graminearum; test: microbe, parasite or virus in culture; type: cell-based; conditions: 50 μM

SMILES | Efficacy [1] | logP [2] | Efficacy [3] | Efficacy [4] | % Inhibition of Aflatoxin at 50 μM [5] | % Inhibition of fungal growth at 50 μM [6]
COC(CNC(=S)c1c(C(F)F)nn(C)c1F)c1cc(Cl)cc(Cl)c1 (stereo not drawn) [Example 110] | 100% | 4.19 | 80% | 75% |  | 
Cn1nc(C(F)F)c(C(=O)N(C2CC2)C2CCCCC2c2ccc(Cl)cc2Cl)c1F (stereo not drawn) [Example 217] |  | 5.05 |  | 99% |  | 
CC(CNC(=O)c1c(C(F)F)nn(C)c1Cl)c1ccc(Cl)cc1Cl (stereo not drawn) [Example 85] | 100% | 3.67 | 100% |  | 100% | 100%
CC(CNC(=O)c1c(C(F)F)nn(C)c1Cl)c1cccc(Cl)c1 (stereo not drawn) [Example 52] | 100% | 3.21 | 100% |  | 100% | 83%
Cn1nc(C(F)F)c(C(=O)NCCc2c(F)c(F)nc(F)c2F)c1F [Example 208] | 100% | 2.44 | 95% |  | 99% | 100%
CC(CNC(=O)c1c(C(F)F)nn(C)c1F)c1ccc(C(F)(F)F)cc1 (stereo not drawn) [Example 127] | 100% | 3.25 | 100% |  | 100% | 100%
CC(CNC(=O)c1c(C(F)F)nn(C)c1Cl)c1cccc(C(F)(F)F)c1 (stereo not drawn) [Example 125] | 100% | 3.35 | 95% |  | 99% | 78%
Cn1nc(C(F)F)c(C(=O)NCCc2cc(Cl)cc(Cl)c2)c1F [Example 103] | 100% | 3.25 | 90% |  | 100% | 99%
Cn1nc(C(F)F)c(C(=O)NCCc2c(Cl)cccc2Cl)c1Cl [Example 118] | 94% | 3.21 | 90% |  | 100% | 81%
CC(CNC(=O)c1c(C(F)F)nn(C)c1Cl)c1cc(Cl)cc(Cl)c1 (stereo not drawn) [Example 112] | 100% | 3.73 | 95% |  | 100% | 83%
Cn1nc(C(F)F)c(C(=O)NC[Si](C)(C)c2cccc(Cl)c2)c1F [Example 237] | 100% | 3.55 | 100% |  | 100% | 100%
CC(CNC(=O)c1c(C(F)F)nn(C)c1F)c1cccc(Cl)c1 (stereo not drawn) [Example 51] | 100% | 3.02 | 100% |  | 100% | 100%
CC(CNC(=O)c1c(C(F)F)nn(C)c1F)c1cccc(C(F)(F)F)c1 (stereo not drawn) [Example 126] | 100% | 3.23 | 90% |  | 100% | 98%
CC(CNC(=O)c1c(C(F)F)nn(C)c1Cl)c1ccc(C(F)(F)F)cc1 (stereo not drawn) [Example 128] | 94% | 3.39 | 100% |  | 100% | 82%
Cn1nc(C(F)F)c(C(=O)N(C[Si](C)(C)c2ccsc2)C2CC2)c1Cl [Example 247] | 100% | 3.71 | 94% |  | 100% | 100%
Cn1nc(C(F)F)c(C(=O)N(CCc2ccccc2)C2CC2)c1Cl [Example 12] | 100% | 3.06 | 100% |  | 100% | 92%
CN(CCc1ccccc1Cl)C(=O)c1c(C(F)F)nn(C)c1F [Example 35] | 100% | 2.76 | 100% |  | 100% | 100%
CC(CNC(=O)c1c(C(F)F)nn(C)c1Cl)c1ccccc1Cl (stereo not drawn) [Example 40] | 94% | 3.15 | 100% |  | 99% | 78%
Cn1nc(C(F)F)c(C(=O)NC[Si](C)(C)c2cc(Cl)cc(Cl)c2)c1F [Example 244] | 95% | 4.08 | 100% |  | 100% | 100%

SMILES | Efficacy [1] | logP [2] | Efficacy [3] | Efficacy [4] | % Inhibition of Aflatoxin at 50 μM [5] | % Inhibition of fungal growth at 50 μM [6]
CC(c1ccccc1Cl)C(C)N(C(=O)c1c(C(F)F)nn(C)c1Cl)C1CC1 (stereo not drawn) [Example 42] | 100% | 4.08 | 80% |  | 100% | 84%
Cn1nc(C(F)F)c(C(=O)NCCc2cc(Cl)ccc2Cl)c1F [Example 90] | 100% | 3.11 | 95% |  | 100% | 100%
Cn1nc(C(F)F)c(C(=O)NCCc2ccccc2Cl)c1Cl [Example 34] | 100% | 2.88 | 100% |  | 100% | 84%
CC(CNC(=O)c1c(C(F)F)nn(C)c1F)c1cc(Cl)cc(Cl)c1 (stereo not drawn) [Example 111] | 100% | 3.55 | 95% |  | 100% | 96%
CCN(CCc1ccc(Cl)cc1)C(=O)c1c(C(F)F)nn(C)c1F [Example 56] | 100% | 3.19 | 100% |  | 100% | 93%
Cc1c(CCNC(=O)c2c(C(F)F)nn(C)c2Cl)sc2ccccc12 [Example 172] | 100% | 3.46 | 100% |  | 100% | 85%
Cn1nc(C(F)F)c(C(=O)NCCc2csc3c2CCCC3)c1Cl [Example 169] | 100% | 3.52 | 80% |  | 91% | 75%
Cn1nc(C(F)F)c(C(=O)NCCc2cccc(Cl)c2)c1Cl [Example 49] | 94% | 2.92 | 100% |  | 100% | 91%
CC(CNC(=O)c1c(C(F)F)nn(C)c1F)c1cc(Cl)ccc1Cl (stereo not drawn) [Example 97] | 100% | 3.35 | 95% |  | 100% | 100%
CCC(CNC(=O)c1c(C(F)F)nn(C)c1F)c1ncc(C(F)(F)F)cc1Cl (stereo not drawn) [Example 192] | 100% | 3.52 | 100% |  | 100% | 100%
CC(CNC(=O)c1c(C(F)F)nn(C)c1Cl)c1cc(Cl)ccc1Cl (stereo not drawn) [Example 98] | 94% | 3.55 | 95% |  | 100% | 95%
Cn1nc(C(F)F)c(C(=O)NC[Si](C)(C)c2cc(Cl)cc(Cl)c2)c1Cl [Example 243] | 100% | 4.27 | 95% |  | 99% | 84%
Cc1cc(C)c(CCN(C)C(=O)c2c(C(F)F)nn(C)c2F)c(C)c1 [Example 135] | 95% | 3.48 | 95% |  | 100% | 96%
CC(C)C(CNC(=O)c1c(C(F)F)nn(C)c1F)c1ccc(Cl)cc1 (stereo not drawn) [Example 60] | 100% | 3.78 | 100% |  | 100% | 96%
CN(CCc1ccccc1C(F)(F)F)C(=O)c1c(C(F)F)nn(C)c1Cl [Example 124] | 95% | 3.13 | 100% |  | 100% | 87%
CC(CNC(=O)c1c(C(F)F)nn(C)c1Cl)c1c(F)cccc1F (stereo not drawn) [Example 29] | 100% | 2.92 | 100% |  | 100% | 82%
CC(Cc1cccc(Oc2ccccc2)c1)NC(=O)c1c(C(F)F)nn(C)c1F (stereo not drawn) [Example 146] | 100% | 3.64 | 95% |  | 100% | 83%
Cn1nc(C(F)F)c(C(=O)NCCc2cc(Cl)cc(Cl)c2)c1Cl [Example 105] | 94% | 3.42 | 95% |  | 100% | 95%
CC(CNC(=O)c1c(C(F)F)nn(C)c1F)c1ccc(Cl)cc1Cl (stereo not drawn) [Example 84] | 100% | 3.46 | 95% |  | 100% | 100%
